Source: patent publication US11078170B2 (Assembly Biosciences, Inc., priority 2017, dated 2021)
pEC50: −log10 of the molar value.

system: HBV viral production from HepAD38 cells; test: Activity of test compounds on viral production from HepAD38 cells (viral load by qPCR of HBV core sequence in supernatant); type: cell-based; conditions: Hepatitis B virus, 120 h, 5 days incubation, HBV DNA in supernatant by qPCR, top concentration 10 μM, read-out: Viral Load EC50 Activity range
In short: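 HepAD38 cells, 50,000/well in tetracycline-free 2% FBS medium, treated 5 days at 37° C. with compound from 10 μM top concentration. HBV DNA in supernatant quantified by TaqMan qPCR of core sequence against DNA standards, relative to DMSO wells; CellTiter-Glo viability read in parallel. EC50/CC50 from four-parameter logistic fit.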

| Compound | pEC50 |
| --- | --- |
| CN1[C@@H](C(=O)Nc2ccc(F)c(Cl)c2)C[C@@H](c2ccc(-c3ccccn3)s2)NS1(=O)=O [HBV-CSU-160-ISO-II, Cis-N-(3-chloro-4-fluorophenyl)-2-methyl-5-(5-(pyridin-2-yl)thiophen-2-yl)-1,2,6-thiadiazinane-3-carboxamide 1,1-dioxide] | 5.30 to 6.00 |
| COc1ccc(-c2csc(C3CC(C(=O)Nc4ccc(F)c(Cl)c4)N(C)S(=O)(=O)N3)c2)cc1 (centres unmarked) [HBV-CSU-241] | > 6.00 |
| CN1[C@@H](C(=O)Nc2ccc(F)c(Br)c2)C[C@@H](c2nccs2)NS1(=O)=O [HBV-CSU-060-ISO-I, Cis-N-(3-bromo-4-fluorophenyl)-2-methyl-5-(thiazol-2-yl)-1,2,6-thiadiazinane-3-carboxamide 1,1-dioxide] | < 5.30 |
| CN1[C@H](C(=O)Nc2ccc(F)c(Cl)c2)C[C@H](c2ncc(-c3cccs3)s2)NS1(=O)=O [HBV-CSU-178-ISO-I, Cis-N-(3-Chloro-4-fluorophenyl)-2-methyl-5-(5-(thiophen-2-yl)thiazol-2-yl)-1,2,6-thiadiazinane-3-carboxamide 1,1-dioxide] | > 6.00 |
| CN1[C@H](C(=O)Nc2ccc(F)c(Cl)c2)C[C@H](c2cc(Cl)c(-c3cnn(C)c3)s2)NS1(=O)=O [HBV-CSU-302-ISO-I, Cis-N-(3-Chloro-4-fluorophenyl)-5-(4-chloro-5-(1-methyl-1H-pyrazol-4-yl)thiophen-2-yl)-2-methyl-1,2,6-thiadiazinane-3-carboxamide 1,1-dioxide] | > 6.00 |
| CN1[C@@H](C(=O)Nc2ccc(F)c(Cl)c2)C[C@@H](c2ccc(-c3cncnc3)s2)NS1(=O)=O [HBV-CSU-272-ISO-II, Cis-N-(3-chloro-4-fluorophenyl)-2-methyl-5-(5-(pyrimidin-5-yl)thiophen-2-yl)-1,2,6-thiadiazinane-3-carboxamide 1,1-dioxide] | < 5.30 |
| CCn1cc(-c2csc([C@H]3C[C@@H](C(=O)Nc4ccc(F)c(Cl)c4)N(C)S(=O)(=O)N3)c2)cn1 [HBV-CSU-294-ISO-I, Cis-N-(3-chloro-4-fluorophenyl)-5-(4-(1-ethyl-1H-pyrazol-4-yl)thiophen-2-yl)-2-methyl-1,2,6-thiadiazinane-3-carboxamide 1,1-dioxide] | > 6.00 |
| CN1C(C(=O)Nc2ccc(F)c(Cl)c2)CC(c2ccc(-c3ccc(NS(C)(=O)=O)cc3)s2)NS1(=O)=O (racemic) [HBV-CSU-163, Cis-N-(3-chloro-4-fluorophenyl)-2-methyl-5-(5-(4-(methylsulfonamido)phenyl)thiophen-2-yl)-1,2,6-thiadiazinane-3-carboxamide 1,1-dioxide] | > 6.00 |
| CN1[C@@H](C(=O)Nc2ccc(F)c(Cl)c2)C[C@@H](c2ccc(-c3cnn(CCO)c3)s2)NS1(=O)=O [HBV-CSU-293-ISO-II, Cis-N-(3-chloro-4-fluorophenyl)-5-(5-(1-(2-hydroxyethyl)-1H-pyrazol-4-yl)thiophen-2-yl)-2-methyl-1,2,6-thiadiazinane-3-carboxamide 1,1-dioxide] | < 5.30 |
| O=C(Nc1ccc(F)c(Cl)c1)[C@H]1C[C@@H](c2nccs2)NS(=O)(=O)N1CCCN1CCCC1 [HBV-CSU-102-ISO-I, Cis-N-(3-Chloro-4-fluorophenyl)-2-(3-(pyrrolidin-1-yl)propyl)-5-(thiazol-2-yl)-1,2,6-thiadiazinane-3-carboxamide 1,1-dioxide] | < 5.30 |
| CN1[C@@H](C(=O)Nc2ccc(F)c(Cl)c2)C[C@@H](c2ccc(C(N)=O)cc2)NS1(=O)=O [HBV-CSU-214-ISO-I, Cis-5-(4-Carbamoylphenyl)-N-(3-chloro-4-fluorophenyl)-2-methyl-1,2,6-thiadiazinane-3-carboxamide 1,1-dioxide] | < 5.30 |
| CN1C(C(=O)Nc2ccc(F)c(Cl)c2)CC(c2cccc(-c3cnn(C)c3)c2)NS1(=O)=O (racemic) [HBV-CSU-247, Cis-N-(3-chloro-4-fluorophenyl)-2-methyl-5-(3-(1-methyl-1H-pyrazol-4-yl)phenyl)-1,2,6-thiadiazinane-3-carboxamide 1,1-dioxide] | > 6.00 |
| CN1[C@H](C(=O)Nc2cc(Cl)cc(Cl)c2)C[C@H](c2cccs2)NS1(=O)=O [HBV-CSU-047-ISO-I, Cis-N-(3,5-Dichlorophenyl)-2-methyl-5-(thiophen-2-yl)-1,2,6-thiadiazinane-3-carboxamide 1,1-dioxide] | > 6.00 |
| CN1C(C(=O)Nc2ccc(F)c(Cl)c2)CC(c2ccc(-c3cnn(C)c3)cc2)NS1(=O)=O (racemic) [HBV-CSU-246, Cis-N-(3-Chloro-4-fluorophenyl)-2-methyl-5-(4-(1-methyl-1H-pyrazol-4-yl)phenyl)-1,2,6-thiadiazinane-3-carboxamide 1,1-dioxide] | > 6.00 |
| CN1C(C(=O)Nc2ccc(F)c(Cl)c2)CC(c2ccc(C#N)c(F)c2)NS1(=O)=O (racemic) [HBV-CSU-221, Cis-N-(3-chloro-4-fluorophenyl)-5-(4-cyano-3-fluorophenyl)-2-methyl-1,2,6-thiadiazinane-3-carboxamide 1,1-dioxide] | > 6.00 |
| Cc1c(-c2ccc([C@H]3C[C@@H](C(=O)Nc4ccc(F)c(Cl)c4)N(C)S(=O)(=O)N3)s2)cnn1C [HBV-CSU-312-ISO-I, Cis-N-(3-chloro-4-fluorophenyl)-5-(5-(1,5-dimethyl-1H-pyrazol-4-yl)thiophen-2-yl)-2-methyl-1,2,6-thiadiazinane-3-carboxamide 1,1-dioxide] | > 6.00 |
| CN1C(C(=O)Nc2ccc(F)c(Cl)c2)CC(c2cccc(Cl)c2)NS1(=O)=O (racemic) [HBV-CSU-261, Cis-N-(3-Chloro-4-fluorophenyl)-5-(3-chlorophenyl)-2-methyl-1,2,6-thiadiazinane-3-carboxamide 1,1-dioxide] | > 6.00 |
| CN1[C@@H](C(=O)Nc2ccc(F)c(Cl)c2)C[C@@H](c2cc(-c3ncnn3C)cs2)NS1(=O)=O [HBV-CSU-327-ISO-II, Cis-N-(3-Chloro-4-fluorophenyl)-2-methyl-5-(4-(1-methyl-1H-1,2,4-triazol-5-yl)thiophen-2-yl)-1,2,6-thiadiazinane-3-carboxamide 1,1-dioxide] | 5.30 to 6.00 |
| [2H]C1[C@]([2H])(c2ccc(-c3cn(C([2H])([2H])[2H])cn3)s2)NS(=O)(=O)N(C)[C@]1([2H])C(=O)Nc1ccc(F)c(Cl)c1 (stereo in doubt) [HBV-CSU-376-ISO-I, Cis-N-(3-Chloro-4-fluorophenyl)-2-methyl-5-(5-(1-(methyl-d3)-1H-imidazol-4-yl)thiophen-2-yl)-1,2,6-thiadiazinane-3,4,5-d3-3-carboxamide 1,1-dioxide] | > 6.00 |
| [2H]C1C([2H])(c2ccc(-c3cn(C([2H])([2H])[2H])cn3)s2)NS(=O)(=O)N(C)C1([2H])C(=O)Nc1ccc(F)c(Cl)c1 (stereo not drawn) [HBV-CSU-376, Cis-N-(3-Chloro-4-fluorophenyl)-2-methyl-5-(5-(1-(methyl-d3)-1H-imidazol-4-yl)thiophen-2-yl)-1,2,6-thiadiazinane-3,4,5-d3-3-carboxamide 1,1-dioxide] | > 6.00 |
| CN1C(C(=O)Nc2ccc(F)c(Cl)c2)CC(c2ccc(-c3ncnn3C)s2)NS1(=O)=O (racemic) [HBV-CSU-323, Cis-N-(3-Chloro-4-fluorophenyl)-2-methyl-5-(5-(1-methyl-1H-1,2,4-triazol-5-yl)thiophen-2-yl)-1,2,6-thiadiazinane-3-carboxamide 1,1-dioxide] | > 6.00 |
| CN1[C@@H](C(=O)Nc2ccc(F)c(Cl)c2)C[C@@H](c2ccc(-c3ccc(C(F)(F)F)nc3)s2)NS1(=O)=O [HBV-CSU-158-ISO-II, Cis-N-(3-chloro-4-fluorophenyl)-2-methyl-5-(5-(6-(trifluoromethyl)pyridin-3-yl)thiophen-2-yl)-1,2,6-thiadiazinane-3-carboxamide 1,1-dioxide] | < 5.30 |
| Cc1sc(C2CC(C(=O)Nc3ccc(F)c(Cl)c3)N(C)S(=O)(=O)N2)cc1-c1cnn(C)c1 (racemic) [HBV-CSU-304, Cis-N-(3-Chloro-4-fluorophenyl)-2-methyl-5-(5-methyl-4-(1-methyl-1H-pyrazol-4-yl)thiophen-2-yl)-1,2,6-thiadiazinane-3-carboxamide 1,1-dioxide] | > 6.00 |
| CN1[C@H](C(=O)Nc2ccc(F)c(Cl)c2)C[C@H](c2cc(-c3ccc(C#N)c(F)c3)cs2)NS1(=O)=O [HBV-CSU-164-ISO-I, Cis-N-(3-chloro-4-fluorophenyl)-5-(4-(4-cyano-3-fluorophenyl)thiophen-2-yl)-2-methyl-1,2,6-thiadiazinane-3-carboxamide 1,1-dioxide] | > 6.00 |
| CN1[C@@H](C(=O)Nc2ccc(F)c(Cl)c2)C[C@@H](c2ccccn2)NS1(=O)=O [HBV-CSU-031-ISO-II, Cis-N-(3-Chloro-4-fluorophenyl)-2-methyl-5-(pyridin-2-yl)-1,2,6-thiadiazinane-3-carboxamide 1,1-dioxide] | < 5.30 |
| CN1C(C(=O)Nc2ccc(F)c(Cl)c2)CC(c2ncc(-c3ccc(Br)c(F)c3)s2)NS1(=O)=O (racemic) [HBV-CSU-173, Cis-5-(5-(4-Bromo-3-fluorophenyl)thiazol-2-yl)-N-(3-chloro-4-fluorophenyl)-2-methyl-1,2,6-thiadiazinane-3-carboxamide 1,1-dioxide] | > 6.00 |
| Cc1cnc([C@H]2C[C@@H](C(=O)Nc3ccc(F)c(Cl)c3)N(C)S(=O)(=O)N2)s1 | > 6.00 |
| CN1C(C(=O)Nc2ccc(F)c(Cl)c2)CC(c2nc3ccccc3s2)NS1(=O)=O (racemic) [HBV-CSU-364, Cis-5-(benzo[d]thiazol-2-yl)-N-(3-chloro-4-fluorophenyl)-2-methyl-1,2,6-thiadiazinane-3-carboxamide 1,1-dioxide] | > 6.00 |
| CCc1sc(C2CC(C(=O)Nc3ccc(F)c(Cl)c3)N(C)S(=O)(=O)N2)cc1Br (centres unmarked) [HBV-CSU-334, 5-(4-bromo-5-ethylthiophen-2-yl)-N-(3-chloro-4-fluorophenyl)-2-methyl-1,2,6-thiadiazinane-3-carboxamide 1,1-dioxide] | > 6.00 |
